# Measurements: paper PMC8453901, “GLPG1205, a GPR84 Modulator: Safety, Pharmacokinetics, and Pharmacodynamics in Healthy Subjects” (Clinical Pharmacology in Drug Development, 2021)
# What was measured:
# CYP1A2 = test system: CYP1A2; parameters: method as in data on file at Galapagos; conditions: in vitro; ref data on file at Galapagos; cited from earlier work
# CYP2C9 = test system: CYP2C9; parameters: method as in data on file at Galapagos, 8, 9; conditions: 100 mg once daily, healthy male subjects; ref data on file at Galapagos, 8, 9; cited from earlier work
# [1] = Safety and tolerability, study 2; assay type: in vivo, human
# Experimental: Safety and tolerability were assessed on the basis of adverse events (AEs), which were monitored throughout both studies. Additional safety assessments included vital signs (including supine [and standing in study 2] heart rate, systolic and diastolic blood pressure, and oral body temperature), 12‐lead electrocardiogram (ECG), clinical laboratory tests (hematology, coagulation [study 2 only], serum/plasma chemistry, urinalysis, urine drug screen, serology, and alcohol breath test), and a comprehensive physical examination. In the SAD part of study 1, clinical laboratory tests, physical examination, and vital signs were assessed at the screening visit, at the time of dosing (0 hours after dose), 24 hours after dosing and at follow‐up (7 to 10 days after the final dose). Vital signs were additionally observed 2 hours after dosing, and the 12‐lead ECG was additionally completed at 1, 2, 6, 8, and 12 hours after dosing. In the MAD part of study 1, all additional safety assessments were performed at screening; days 1, 2, 8, 14, and 15; and at follow‐up. In study 2, additional safety assessments were performed at screening (between 21 and 2 days before the first study drug administration); days 1, 2, 5, 10, 14, 15, and 20 (clinical laboratory tests were not performed on day 20); at early discontinuation; and at follow‐up. For study 2, renal function tests (measurement of estimated creatinine clearance rate using the Cockcroft‐Gault equation) were also included in the clinical laboratory tests for safety assessment.
# In both studies, the safety analysis was descriptive and focused on changes from baseline and treatment‐emergent findings.
# [2] = part 1, 50 mg QD, 18–50 years (n = 6)
# [3] = part 1, 50 mg QD, 65–74 years (n = 6)
# [4] = part 1, 50 mg QD, ≥ 75 years (n = 6)
# [5] = part 2, 250 mg loading dose + 50 mg QD, 65–74 years (n = 8)
compound,measurement,setting,value
"O=c1nc(OC[C@@H]2COCCO2)cc2n1CCc1cc(C#CC3CC3)ccc1-2 [GLPG1205, 9‐cyclopropylethynyl‐2‐((S)‐1‐[1,4]dioxan‐2‐ylmethoxy)‐6,7‐dihydropyrimido[6,1‐a]isoquinolin‐4‐one]",induction of CYP1A2,CYP1A2,weak induction
same,effect on exposure of CYP2C9,CYP2C9,did not affect the exposure
same,Any TEAE,[1]; [2],5 (83.3) number of subjects (%)
same,Diarrhea (TEAE),[1]; [2],0 number of subjects (%)
same,Erectile dysfunction (TEAE),[1]; [2],2 (33.3) number of subjects (%)
same,Gastrointestinal disorders (TEAE),[1]; [2],2 (33.3) number of subjects (%)
same,Headache (TEAE),[1]; [2],3 (50.0) number of subjects (%)
same,Infections and infestations (TEAE),[1]; [2],1 (16.7) number of subjects (%)
same,Nasopharyngitis (TEAE),[1]; [2],1 (16.7) number of subjects (%)
same,Nausea (TEAE),[1]; [2],2 (33.3) number of subjects (%)
same,Nervous system disorders (TEAE),[1]; [2],3 (50.0) number of subjects (%)
same,Reproductive system and breast disorders (TEAE),[1]; [2],2 (33.3) number of subjects (%)
same,Vomiting (TEAE),[1]; [2],0 number of subjects (%)
same,Any TEAE,[1]; [3],5 (83.3) number of subjects (%)
same,Diarrhea (TEAE),[1]; [3],0 number of subjects (%)
same,Erectile dysfunction (TEAE),[1]; [3],0 number of subjects (%)
same,Gastrointestinal disorders (TEAE),[1]; [3],1 (16.7) number of subjects (%)
same,Headache (TEAE),[1]; [3],3 (50.0) number of subjects (%)
same,Infections and infestations (TEAE),[1]; [3],3 (50.0) number of subjects (%)
same,Nasopharyngitis (TEAE),[1]; [3],2 (33.3) number of subjects (%)
same,Nausea (TEAE),[1]; [3],0 number of subjects (%)
same,Nervous system disorders (TEAE),[1]; [3],4 (66.7) number of subjects (%)
same,Reproductive system and breast disorders (TEAE),[1]; [3],0 number of subjects (%)
same,Vomiting (TEAE),[1]; [3],0 number of subjects (%)
same,Any TEAE,[1]; [4],3 (50.0) number of subjects (%)
same,Diarrhea (TEAE),[1]; [4],0 number of subjects (%)
same,Erectile dysfunction (TEAE),[1]; [4],0 number of subjects (%)
same,Gastrointestinal disorders (TEAE),[1]; [4],1 (16.7) number of subjects (%)
same,Headache (TEAE),[1]; [4],0 number of subjects (%)
same,Infections and infestations (TEAE),[1]; [4],0 number of subjects (%)
same,Nasopharyngitis (TEAE),[1]; [4],0 number of subjects (%)
same,Nausea (TEAE),[1]; [4],0 number of subjects (%)
same,Nervous system disorders (TEAE),[1]; [4],0 number of subjects (%)
same,Polyuria (TEAE),[1]; [4],2 (33.3) 2 (33.3) number of subjects (%)
same,Renal and urinary disorders (TEAE),[1]; [4],2 (33.3) 2 (33.3) number of subjects (%)
same,Reproductive system and breast disorders (TEAE),[1]; [4],0 number of subjects (%)
same,Vomiting (TEAE),[1]; [4],0 number of subjects (%)
same,Any TEAE,[1]; [5],7 (87.5) number of subjects (%)
same,Diarrhea (TEAE),[1]; [5],1 (12.5) number of subjects (%)
same,Erectile dysfunction (TEAE),[1]; [5],0 number of subjects (%)
same,Gastrointestinal disorders (TEAE),[1]; [5],4 (50.0) number of subjects (%)
same,Headache (TEAE),[1]; [5],1 (12.5) number of subjects (%)
same,Infections and infestations (TEAE),[1]; [5],0 number of subjects (%)
same,Nasopharyngitis (TEAE),[1]; [5],0 number of subjects (%)
same,Nausea (TEAE),[1]; [5],3 (37.5) number of subjects (%)
same,Nervous system disorders (TEAE),[1]; [5],1 (12.5) number of subjects (%)
same,Polyuria (TEAE),[1]; [5],0 number of subjects (%)
same,Renal and urinary disorders (TEAE),[1]; [5],0 number of subjects (%)
same,Reproductive system and breast disorders (TEAE),[1]; [5],0 number of subjects (%)
same,Vomiting (TEAE),[1]; [5],2 (25.0) number of subjects (%)
same,nausea of mild intensity,"[1]; part 2, loading dose",2 n
same,nausea of moderate intensity,"[1]; part 2, loading dose",1 n
